In ChEMBL document CHEMBL1806483, “Discovery and SAR of 2-arylbenzotriazoles and 2-arylindazoles as potential treatments for Duchenne muscular dystrophy” (Bioorg Med Chem Lett, 2011):
Values after ≈ are worked out from the molar mass of the structure shown.

Assays:
[1] = Upregulation of utrophin transcription in mouse H2K cells at 10 uM after 48 hrs by luciferase reporter assay relative to 2-(4-(diethylamino)phenyl)-6-methyl-2H-benzo[d][1,2,3]triazol-5-amine; type: functional, cell-based
[2] = Upregulation of utrophin transcription in mouse H2K cells after 48 hrs by luciferase reporter assay; type: functional, cell-based
[3] = Upregulation of utrophin transcription in mouse H2K cells at 3 uM after 48 hrs by luciferase reporter assay relative to 2-(4-(diethylamino)phenyl)-6-methyl-2H-benzo[d][1,2,3]triazol-5-amine; type: functional, cell-based
[4] = Upregulation of utrophin mRNA expression in mouse H2K cells after 72 hrs by RT-PCR analysis relative to control; type: functional, cell-based
[5] = Aqueous solubility of the compound in 0.01 M phosphate buffered saline at pH 7.4 after 2 hrs by turbidimetric method; type: physicochemical
[6] = Half life in human liver microsome by LC-MS/MS analysis; type: ADME; conditions: liver microsomes

CC(C)S(=O)(=O)c1ccc2cn(-c3ccc(Cl)cc3)nc2c1
Activity [1]: 54%

CCS(=O)(=O)c1ccc2cn(-c3ccc(Cl)cc3)nc2c1
EC50 [2]: > 30 µM

CCS(=O)(=O)c1ccc2nn(-c3ccc4ccccc4c3)nc2c1
Activity [3]: 73%

Nc1ccc2nn(-c3ccc(Cl)cc3)nc2c1
EC50 [2]: > 30 µM

CCN(CC)c1ccc(-n2nc3ccc(N)cc3n2)cc1
EC50 [2]: 0.7 µM

CC(C)C(=O)Nc1ccc2cn(-c3ccc(Cl)cc3)nc2c1
Activity [4]: 138%
solubility kinetic at 2 h [5]: 3 µM (≈ 0.941 µg/mL)
half-life [6]: 3.3 h
EC50 [2]: 1.73 µM

CC(C)C(=O)Nc1ccc2nn(-c3ccc(Cl)cc3)nc2c1
solubility kinetic at 2 h [5]: 1 µM (≈ 0.315 µg/mL)
half-life [6]: 4.85 h
EC50 [2]: 0.76 µM

CCS(=O)(=O)c1ccc2nn(-c3ccc(Cl)c(Cl)c3)nc2c1
Activity [1]: 52%

Cc1cc2nn(-c3ccc(Cl)cc3)nc2cc1NC(=O)c1cccnc1
EC50 [2]: 3.07 µM

Cc1cc2nn(-c3ccc(Cl)cc3)nc2cc1NC(=O)C(C)C
EC50 [2]: > 30 µM

CC(=O)Nc1ccc2nn(-c3ccc(Cl)cc3)nc2c1
EC50 [2]: 1.8 µM

CS(=O)(=O)c1ccc2cn(-c3ccc(Cl)cc3)nc2c1
EC50 [2]: > 30 µM

CCS(=O)(=O)c1ccc2oc(-c3ccc4ccccc4c3)nc2c1 [EZUTROMID]
EC50 [2]: 1.8 µM

CCS(=O)(=O)c1ccc2nn(-c3ccc(Cl)cc3)nc2c1
EC50 [2]: > 30 µM

CS(=O)(=O)c1ccc2nn(-c3ccc4ccccc4c3)nc2c1
Activity [3]: 63%

CS(=O)(=O)c1ccc2nn(-c3ccc(Cl)cc3)nc2c1
EC50 [2]: 11.7 µM

CCC(=O)Nc1cc2nn(-c3ccc(N(CC)CC)cc3)nc2cc1C
EC50 [2]: > 30 µM

CC(C)C(=O)Nc1ccc2nn(-c3ccc(Cl)c(Cl)c3)nc2c1
Activity [3]: 87%

CCN(CC)c1ccc(-n2nc3cc(C)c(NC(=O)c4ccco4)cc3n2)cc1
EC50 [2]: > 30 µM

CCN(CC)c1ccc(-n2nc3cc(C)c(NC(=O)C(C)C)cc3n2)cc1
EC50 [2]: > 30 µM
